In US10610522B2, “Methods for retreating irritable bowel syndrome (IBS)” (Salix Pharmaceuticals, Inc., priority 2014, dated 2020):
Read-outs that look alike come from different tables or passages of the source.

Key:
non-constipation IBS = experiment: Study 2 (TARGET 2): rifaximin 550 mg TID 14 days vs placebo in non-C IBS, 10-week follow-up; assay type: in vivo, human
Procedure: The primary efficacy endpoint of the study was the proportion of subjects who achieved adequate relief of IBS symptoms for at least 2 weeks during the first 4 weeks of the 10-week follow-up phase.
Two measures of efficacy were assessed.
Subjects were questioned on the relief of overall IBS symptoms and bloating. […] The analyses defined success as a “yes” response to questions regarding adequate relief. […]
All subpopulations in the study responded to therapy. Baseline severity was determined during screening for Abdominal Pain/Discomfort and Bloating, and the number, type (normal, hard, loose) and urgency of bowel movements. Duration of effect was assessed in a ten week follow-up period. […]
In TARGET 1 and 2, the primary endpoint was the proportion of patients who achieved adequate relief of IBS symptoms for at least 2 of 4 weeks during the month following 14 days of treatment. Adequate relief was defined as a response of “yes” to the following weekly Subject Global Assessment (SGA) question: “In regards to your IBS symptoms, compared to the way you felt before you started study medication, have you, in the past 7 days, had adequate relief of your IBS symptoms? [Yes/No]”
The key secondary endpoint was the proportion of patients who achieved adequate relief of IBS-related bloating for at least 2 of 4 weeks during the month following 2 weeks of treatment. Adequate relief of IBS-related bloating was defined as a response of “yes” to the following weekly (every 7 days) SGA question: “In regards to your IBS symptom of bloating, compared to the way you felt before you started study medication, have you, in the past 7 days, had adequate relief of your IBS symptom of bloating? […]

rat fetuses = experiment: Developmental toxicity in pregnant rats; assay type: in vivo
[1] = Rifaximin systemic exposure/pharmacokinetics in healthy subjects, IBS subjects and liver impaired subjects; assay type: in vivo, human; settings: for AUC / Cmax / half-life / Tmax / AUC(0-inf): human, plasma; for Tmax: read-out: Tmax, Median (range); for AUC(0-inf): po, single 550 mg oral dose, read-out: Mean AUC0-∞
Procedure: Subjects with non-c-IBS had mean AUCtau values following a single dose and multiple TID doses of 9.69 ng·h/mL and 16.0 ng·h/mL, respectively, reflecting an accumulation ratio (Rc; multiple-dose AUCtau/single-dose AUCtau) of […]. In subjects with liver impairment, systemic exposure is higher than that observed in healthy subjects or subjects with non-constipation irritable bowel syndrome, but low nonetheless.
Pharmacokinetic parameters were measured after a single dose and multiple doses (14 days).

[2] = Study 2, at least 2 weeks during PEP
[3] = TARGET 2, month following two weeks of treatment, 550 mg TID, N = 315

For CO[C@H]1/C=C/O[C@@]2(C)Oc3c(C)c(O)c4c(O)c(c5c(nc6cc(C)ccn65)c4c3C2=O)NC(=O)/C(C)=C\C=C\[C@H](C)[C@H](O)[C@@H](C)[C@@H](O)[C@@H](C)[C@H](OC(C)=O)[C@@H]1C [Rifaximin, (2S,16Z,18E,20S,21S,22R,23R,24R,25S,26S,27S,28E)-5,6,21,23,25 Pentahydroxy-27-methoxy-2,4,11,16,20,22,24,26-octamethyl-2,7-(epoxypentadeca-(1,11,13)trienimino) benzofuro (4,5-e) pyrido(1,2-a) benzimidazole-1,15(2H)-dione,25-acetate], which “Responders: overall reduction of mean weekly abdominal pain by >= 50%” value (non-constipation IBS; [2]) is on record?
The value was 35%.

And the “Responders: overall reduction of mean weekly abdominal pain by >= 75%” value (non-constipation IBS; [2])?
The value was 14%.

What about the “Responders: overall reduction of median weekly abdominal pain by >= 25%” value (non-constipation IBS; [2]) of the same compound?
The value was 62%.

And the “Responders: overall reduction of median weekly abdominal pain by >= 50%” value (non-constipation IBS; [2])?
The value was 44%.

And the “Abdominal Pain Responders: %” value (non-constipation IBS; [3])?
The value was 52%.

What about the “Abdominal Pain Responders: n” value (non-constipation IBS; [3]) of the same compound?
Its value is 165.

And the “Abdominal Pain and Stool Consistency Responders: %” value (non-constipation IBS; [3])?
The value was 47%.

And the “Abdominal Pain and Stool Consistency Responders: n” value (non-constipation IBS; [3])?
Its value is 147.

And the “Adequate Relief of IBS Symptoms: %” value (non-constipation IBS; [3])?
Its value is 41%.

And the “Adequate Relief of IBS Symptoms: n” value (non-constipation IBS; [3])?
The value was 128.

And the “Adequate Relief of IBS-Related Bloating: %” value (non-constipation IBS; [3])?
The value was 41%.

What about the “Adequate Relief of IBS-Related Bloating: n” value (non-constipation IBS; [3]) of the same compound?
Its value is 129.

And the “Stool Consistency Responders: %” value (non-constipation IBS; [3])?
The value was 74%.

And the “Stool Consistency Responders: n” value (non-constipation IBS; [3])?
The value was 233.

What about the “Monthly responders for abdominal pain (≥30% decrease) and stool consistency (score <4)” value (non-constipation IBS; TARGET 2, ≥2 weeks in month following 2 weeks of treatment) of the same compound?
Its value is 47%.

What about the “% with decrease in stool frequency (SF)” value (non-constipation IBS; Week 1, 550 mg TID) of the same compound?
Its value is 14.4%.

And the “% with decrease in stool frequency (SF)” value (non-constipation IBS; Week 2, 550 mg TID)?
Its value is 20.6%.

And the “% with decrease in stool frequency (SF)” value (non-constipation IBS; Week 3, 550 mg TID)?
The value was 22.2%.

What about the “% with decrease in stool frequency (SF)” value (non-constipation IBS; Week 4, 550 mg TID) of the same compound?
The value was 21.6%.

And the “% with decrease in stool frequency (SF)” value (non-constipation IBS; Week 5, 550 mg TID)?
The value was 25.7%.

And the “% with decrease in stool frequency (SF)” value (non-constipation IBS; Week 6, 550 mg TID)?
Its value is 22.9%.

What about the “% with decrease in stool frequency (SF)” value (non-constipation IBS; Week 7, 550 mg TID) of the same compound?
The value was 23.8%.

What about the “% with decrease in stool frequency (SF)” value (non-constipation IBS; Week 8, 550 mg TID) of the same compound?
Its value is 24.4%.

And the “% with decrease in stool frequency (SF)” value (non-constipation IBS; Week 9, 550 mg TID)?
Its value is 25.4%.

And the “% with decrease in stool frequency (SF)” value (non-constipation IBS; Week 10, 550 mg TID)?
The value was 26.7%.

What about the “% with decrease in stool frequency (SF)” value (non-constipation IBS; Week 11, 550 mg TID) of the same compound?
Its value is 25.4%.

What about the “% with decrease in stool frequency (SF)” value (non-constipation IBS; Week 12, 550 mg TID) of the same compound?
The value was 27.0%.

What about the Fetal malformations (rat fetuses; pregnant rats, dose levels that caused reduced body weight gain) of the same compound?
Its Fetal malformations is “eye malformations”.

What about the “Post-natal developmental effects in rat pups” value (rat fetuses; pregnant/lactating rats dosed from gestation to Day 20 post-partum, highest dose) of the same compound?
Its value is “not observed”.

What about the AUC ([1]; 550 mg, 550 mg BID repeat dosing, Child Pugh B, read-out: Mean steady-state AUCtau) of the same compound?
Its AUC is 161 ng·h/mL.

What about the AUC ([1]; 550 mg, 550 mg BID repeat dosing, Child-Pugh A, read-out: Mean steady-state AUCtau) of the same compound?
Its AUC is 118 ng·h/mL.

And the AUC ([1]; 550 mg, 550 mg BID repeat dosing, Child-Pugh C, read-out: Mean steady-state AUCtau)?
The AUC was 246 ng·h/mL.

And the AUC ([1]; 550 mg, multiple-dose TID, healthy subjects, read-out: Mean AUCtau, steady-state)?
The AUC was 9.3 ng·h/mL.

And the AUC ([1]; 550 mg, subjects with non-c-IBS, multiple TID doses, read-out: Mean AUCtau)?
The AUC was 16 ng·h/mL.

And the AUC ([1]; 550 mg, subjects with non-c-IBS, single dose, read-out: Mean AUCtau)?
The AUC was 9.69 ng·h/mL.

What about the AUC ([1]; multiple-dose BID, healthy subjects, read-out: Mean AUCtau, steady-state) of the same compound?
Its AUC is 12.3 ng·h/mL.

And the AUC ([1]; oral, 550 mg, 550 mg BID, Child-Pugh C, read-out: Mean steady-state AUCtau)?
The AUC was 257 ng·h/mL.

And the Cmax ([1]; oral, 550 mg, 550 mg BID, Child-Pugh C, read-out: Mean steady-state Cmax)?
The Cmax was 39.7 ng/mL.

And the half-life ([1]; oral, 550 mg, Child-Pugh C subjects, read-out: Mean half-life (converted))?
The half-life was 6.35 h.

And the AUC ([1]; oral, 550 mg, Healthy Subjects, 550 mg Multiple-Dose TID (Day 14), N = 14, read-out: AUCtau, mean (SD))?
The AUC was 9.3 ng·h/mL.

And the Cmax ([1]; oral, 550 mg, Healthy Subjects, 550 mg Multiple-Dose TID (Day 14), N = 14, read-out: Cmax, mean (SD))?
Its Cmax is 2.39 ng/mL.

And the half-life ([1]; oral, 550 mg, Healthy Subjects, 550 mg Multiple-Dose TID (Day 14), N = 14, read-out: Half-life, harmonic mean (pseudo SD) (converted))?
Its half-life is 5.63 h.

And the Tmax ([1]; oral, 550 mg, Healthy Subjects, 550 mg Multiple-Dose TID (Day 14), N = 14)?
The Tmax was 1 h.

What about the AUC ([1]; oral, 550 mg, Healthy Subjects, 550 mg Single-Dose (Day 1), N = 12, read-out: AUCtau, mean (SD)) of the same compound?
Its AUC is 10.4 ng·h/mL.

And the Cmax ([1]; oral, 550 mg, Healthy Subjects, 550 mg Single-Dose (Day 1), N = 12, read-out: Cmax, mean (SD))?
Its Cmax is 4.04 ng/mL.

What about the half-life ([1]; oral, 550 mg, Healthy Subjects, 550 mg Single-Dose (Day 1), N = 12, read-out: Half-life, harmonic mean (pseudo SD) (converted)) of the same compound?
Its half-life is 1.83 h.

And the Tmax ([1]; oral, 550 mg, Healthy Subjects, 550 mg Single-Dose (Day 1), N = 12)?
Its Tmax is 0.75 h.

And the AUC ([1]; oral, 550 mg, IBS-D Patients, 550 mg Multiple-Dose TID (Day 14), N = 24, read-out: AUCtau, mean (SD))?
The AUC was 16 ng·h/mL.

What about the Cmax ([1]; oral, 550 mg, IBS-D Patients, 550 mg Multiple-Dose TID (Day 14), N = 24, read-out: Cmax, mean (SD)) of the same compound?
Its Cmax is 4.22 ng/mL.

What about the half-life ([1]; oral, 550 mg, IBS-D Patients, 550 mg Multiple-Dose TID (Day 14), N = 24, read-out: Half-life, harmonic mean (pseudo SD) (converted)) of the same compound?
The half-life was 6.08 h.

And the Tmax ([1]; oral, 550 mg, IBS-D Patients, 550 mg Multiple-Dose TID (Day 14), N = 24)?
Its Tmax is 1 h.

What about the AUC ([1]; oral, 550 mg, IBS-D Patients, 550 mg Single-Dose (Day 1), N = 24, read-out: AUCtau, mean (SD)) of the same compound?
Its AUC is 9.69 ng·h/mL.

And the Cmax ([1]; oral, 550 mg, IBS-D Patients, 550 mg Single-Dose (Day 1), N = 24, read-out: Cmax, mean (SD))?
Its Cmax is 3.49 ng/mL.

And the half-life ([1]; oral, 550 mg, IBS-D Patients, 550 mg Single-Dose (Day 1), N = 24, read-out: Half-life, harmonic mean (pseudo SD) (converted))?
The half-life was 3.14 h.

What about the Tmax ([1]; oral, 550 mg, IBS-D Patients, 550 mg Single-Dose (Day 1), N = 24) of the same compound?
Its Tmax is 0.775 h.

What about the Cmax ([1]; oral, 550 mg, single 550-mg dose, fasted healthy subjects, read-out: Cmax) of the same compound?
The Cmax was 4.1 ng/mL.

And the AUC(0-inf) ([1]; 550 mg, fasted healthy subjects)?
Its AUC(0-inf) is 11.1 ng·h/mL.

What about the AUC(0-inf) ([1]; 550 mg, fed healthy subjects) of the same compound?
Its AUC(0-inf) is 22.5 ng·h/mL.

What about the Systemic absorption ([1]; regardless of food intake or presence of GI disease) of the same compound?
The Systemic absorption was < 0.4%.
